Measurements published in patent publication US6723716B1, “7-acylamino-3-heteroarylthio-3-cephem carboxylic acid antibiotics and prodrugs thereof” (Essential Therapeutics, Inc., priority 1999, dated 2004).
≈ marks a conversion by molar mass, not a printed value. Read-outs that look alike come from different tables or passages of the source.

Assays:
S. aureus ATCC29213 = assay: Human serum binding effect: MIC with and without human serum; assay type: cell-based, Staphylococcus aureus; details: 1:1 human serum:MHB
Summary of the method: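 Serum binding was estimated as the ratio of S. aureus ATCC29213 MIC in 1:1 human serum:Mueller-Hinton broth to MIC without serum. Compounds were serially 2-fold diluted, and wells received an early-log-phase inoculum at 1×10^6 CFU/mL final. Inoculum size was checked by colony counts on TSA after overnight incubation at 35 °C.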

P. aeruginosa ATCC 27853 = assay: Broth microdilution MIC (NCCLS); assay type: cell-based; details: Pseudomonas aeruginosa, ATCC27853
Procedure: (§1) Compounds were evaluated for antimicrobial activity against a panel of bacterial strains using a broth microdilution assay performed as recommended by the NCCLS (1). The minimum inhibitory concentration (MIC) was defined as the lowest concentration of drug which prevented the growth of the bacteria.
(§2) For this primary panel, the assay was performed in Mueller-Hinton Broth (MHB) with a final bacterial inoculum of 5×10^5 CFU/mL (from an early-log phase culture) and a final volume of 100 μL. Control drugs, including imipenem, vancomycin, Penicillin G, dicloxacillin (vs. MSSA ATCC29213 only), and new compounds were prepared at a concentration equivalent to 2-fold the desired final concentration. Dilution of compounds were prepared directly in the plates by serial 2-fold dilution using a multichannel pipette. Positive and negative growth control were included in each plate.
(§3) The bacterial inocula were prepared as follows. For each strain one isolated colony was used to inoculate a volume of 8 mL of Mueller-Hinton broth and these cultures were incubated overnight (20 h) at 35° C. in a shaking incubator. At the exception of Enterococcus strains, culture were then diluted 1:10 and allowed to grow for an additional one hour at 35° C. in a shaking incubator. The inocula were prepared by diluting the early log-phase (1 h) cultures 1:1000 with fresh Mueller-Hinton broth. E. faecium and E. faecalis were prepared by diluting overnight cultures 1:333 and 1:666, respectively, with fresh Mueller-Hinton broth. A volume of 50 μL of the inocula was added to each well. […] The exact inocula were determined by applying 10 μL of 10-fold serial dilution of the bacterial suspensions on TSA. After overnight incubation at 35° C., colony forming units were manually counted.
(§4) Microtiter plates were incubated during 24 h at 35° C. and were read using a microtiterplate reader (Molecular Devices) at 650 nm as well as by visual observation using a microtiterplate reading mirror.

[1] = tested on: S. haemolyticus 05 (Meth^R); assay: Broth microdilution MIC (NCCLS); assay type: cell-based; details: Staphylococcus haemolyticus
Procedure: as §1, §2, §3, §4

[2] = tested on: S. aureus ATCC 33593 (Meth^R); assay: Broth microdilution MIC (NCCLS); assay type: cell-based; details: Staphylococcus aureus, ATCC33593
Procedure: as §1, §2, §3, §4

S. aureus ATCC 29213 = assay: Broth microdilution MIC (NCCLS); assay type: cell-based; details: Staphylococcus aureus
Procedure: as §1, §2, §3, §4

[3] = tested on: S. aureus Col (Meth^R)(lac^−); assay: Broth microdilution MIC (NCCLS); assay type: cell-based; details: Staphylococcus aureus
Procedure: as §1, §2, §3, §4

E. faecium VanA (Van^R) = assay: Broth microdilution MIC (NCCLS); assay type: cell-based; details: Enterococcus faecium
Procedure: as §1, §2, §3, §4

[4] = tested on: S. aureus Spain #356 (Meth^R); assay: Broth microdilution MIC (NCCLS); assay type: cell-based; details: Staphylococcus aureus, 24 h
Procedure: as §1, §2, §3, §4

[5] = tested on: S. aureus 76 (Meth^R)(lac^+); assay: Broth microdilution MIC (NCCLS); assay type: cell-based; details: Staphylococcus aureus
Procedure: as §1, §2, §3, §4

E. faecium ATCC 35667 = assay: Broth microdilution MIC (NCCLS); assay type: cell-based; details: Enterococcus faecium, ATCC35667
Procedure: as §1, §2, §3, §4

E. coli ATCC25992 = assay: Broth microdilution MIC (NCCLS); assay type: cell-based; details: Escherichia coli
Procedure: as §1, §2, §3, §4

[6] = tested on: S. aureus PC1 (Meth^S)(lac^+); assay: Broth microdilution MIC (NCCLS); assay type: cell-based; details: Staphylococcus aureus
Procedure: as §1, §2, §3, §4

[7] = tested on: S. aureus ATCC 13709 (Meth^S); assay: Broth microdilution MIC (NCCLS); assay type: cell-based; details: Staphylococcus aureus
Procedure: as §1, §2, §3, §4

E. faecium A491 (Amp^R) = assay: Broth microdilution MIC (NCCLS); assay type: cell-based; details: Enterococcus faecium
Procedure: as §1, §2, §3, §4

E. faecalis VanB (Van^R) = assay: Broth microdilution MIC (NCCLS); assay type: cell-based; details: Enterococcus faecalis
Procedure: as §1, §2, §3, §4

[8] = tested on: S. aureus Col8A (Meth^S)(lac^−); assay: Broth microdilution MIC (NCCLS); assay type: cell-based; details: Staphylococcus aureus
Procedure: as §1, §2, §3, §4

E. faecalis ATCC 29212 = assay: Broth microdilution MIC (NCCLS); assay type: cell-based; details: Enterococcus faecalis, ATCC29212
Procedure: as §1, §2, §3, §4

human serum proteins = assay: Serum binding determination by ultrafiltration/HPLC; assay type: in vitro ADME; details: by HPLC
Procedure: The more accurate measurement of binding of selected cephalosporin compounds was performed using HPLC as described below.
1. Serum is placed in a shaking water bath preheated to 37±2° C. for 5 to 10 minutes to heat serum to 37° C. Serum pH is measured and recorded, while serum is 37° C. using pH paper. Measurements are taken twice, 3 minutes apart. If the pH is not 7.4±0.4 then the pH is adjusted by blowing 5% CO2/95% O2 over the serum. After blowing for several minutes, serum is heated to 37° C. and measurements are taken twice, 3 minutes apart using pH paper to determine the pH. Store at 4° C. The serum is stable for 7 days. Always check the pH before each use.
2. Before any centrifugation, the centrifuge temperature must be adjusted to 25±2° C. Preheat the centrifuge by spinning for 45 minutes at the same speed to be used in the assay (1900 g) with two tubes of water in the rotor and the temperature set to 25° C. When the centrifuge stops immediately check the temperature of the tubes of water with a calibrated thermometer. The temperature of the tubes of water must be 25±2° C. […] Continue spinning and measuring the temperature and adjusting the setting until the temperature is 25±2° C.
3. Prepare blank ultrafiltrate by pipetting blank pH 7.4 serum into an Amicon Centrifree Micropartition devices, centrifuge: fixed angle rotor, 1900 g, 25° C. for 20 minutes. Heat ultrafiltrate in a shaking water bath preheated to 37° C. Measure ultrafiltrate pH and adjust to the pH of the serum (7.4±0.2).
4. Pipette 190 ul of blank ultrafiltrate into a set of labeled 1.7 mL polypropylene microfuge tubes for 3 of each level. Pipette 10 μL of the appropriate standard stock 50, 200, 1000 μg/mL to make standards 2.5, 10, and 50 μg/mL respectively. Vortex each tube well. One set of the standard samples are mixed 1:1 with 0.2 M acetic acid and injected onto the HPLC (MSTD). These samples are the membrane standards and will be used to compare to the other standards. Pipette 190 ul of ultrafiltrate and spike with 10 ul of whatever solution (e.g. water) the standards are prepared in to make the zero standard.
5. Pipette 475 μL of blank heated pH 7.4 serum into a set of labeled 1.7 mL polypropylene microfuge tubes for 2 of each (Serum A and Serum B). Pipette 25 μL of the 1000 μg/mL standard stock into each tube, vortex each tube well to make serum standard 50 μg/mL. Remove 100 μL of serum and deproteinate with 200 μL 4% TCA while vortexing to make serum time 0 (serum 50, T0). Place serum tubes in a shaking water bath at 37° C. for 10 minutes. Pipet 100 μL of serum out and deproteinate with 200 μL 4% TCA, to make serum time 10 min (serum 50, T10). Pipet 200 ul serum standard 50 μg/mL into an ultrafiltration device, which is not treated with TCA, to determine free drug in samples (Rat Serum 50).
6. Transfer serum and standard samples to labeled Amicon Centrifree Micropartition filters, and centrifuge: 1900 g, 25° C. for 10 minutes. The extracted serum samples (T0 and T10) are spun down and supernatant is loaded into HPLC vials.
7. 100 μL of ultrafiltrate sample and 100 μL of 0.2 M acetic acid were mixed together to stabilize the compound in ultrafiltrate.
8. Transfer entire stabilized ultrafiltrate solution to a labeled autoinjector HPLC vial cap with Teflon septa, and inject on HPLC.
Peak height or area is used in a weighted linear regression.

[9] = ATCC29213, S. aureus ATCC 29213, Mueller-Hinton broth, 24 h at 35° C., read-out: MIC
[10] = ATCC13709, S. aureus ATCC 13709 (Meth^S), read-out: MIC

SMILES | Human serum binding effect (ratio of MIC value determined with and without human serum added) (S. aureus ATCC29213) | MIC (P. aeruginosa ATCC 27853) [µg/mL] | MIC [1] [µg/mL] | MIC [2] [µg/mL] | MIC (S. aureus ATCC 29213; [9]) [µg/mL] | MIC [3] [µg/mL] | MIC (E. faecium VanA (Van^R)) [µg/mL] | MIC [4] [µg/mL] | MIC [5] [µg/mL] | MIC (E. faecium ATCC 35667) [µg/mL] | MIC (E. coli ATCC25992) [µg/mL] | MIC [6] [µg/mL] | MIC [7, 10] [µg/mL] | MIC (E. faecium A491 (Amp^R)) [µg/mL] | MIC (E. faecalis VanB (Van^R)) [µg/mL] | MIC [8] [µg/mL] | MIC (E. faecalis ATCC 29212) [µg/mL] | Serum Binding human (% of compound bound to serum) (human serum proteins) [%] | MIC (S. aureus ATCC 29213; ATCC29213, 24 h) [µg/mL] | MIC ([7]; ATCC13709) [µg/mL]
NCCNc1nc(CSCCN)c(SC2=C(C(=O)O)N3C(=O)[C@@H](NC(=O)/C(=N\O)c4nc(N)sc4Cl)[C@H]3SC2)s1 [Cmpd 16, (7R)-7-[(Z)-2-(2-amino-5-chlorothiazol-4-yl)-2-(hydroxyimino)acetamido]-3-[4-(2-aminoethylthiomethyl)-2-aminoethylamino-1,3-thiazol-5-ylthio]-3-cephem-4-carboxylic acid] | 1 | 1 (≈ 1.5 µM) | 1 (≈ 1.5 µM) | 1 (≈ 1.5 µM) | 0.13 (≈ 0.195 µM) | 1 (≈ 1.5 µM) | 4 (≈ 6 µM) | 1 (≈ 1.5 µM) | 1 (≈ 1.5 µM) | 0.5 (≈ 0.75 µM) | 4 (≈ 6 µM) | 0.13 (≈ 0.195 µM) | 0.13 (≈ 0.195 µM) | 16 (≈ 24 µM) | 0.06 (≈ 0.0901 µM) | 0.25 (≈ 0.375 µM) | 0.06 (≈ 0.0901 µM) |  |  | 
NCCSCc1ccncc1SC1=C(C(=O)O)N2C(=O)[C@@H](NC(=O)/C(=N\O)c3cccc(N)n3)[C@H]2SC1 [Cmpd 28, (7R)-7-[(Z)-2-(2-aminopyrid-6-yl)-2-(hydroxyimino)acetamido]-3-[4-(2-aminoethylthiomethyl)pyrid-3-ylthio]-3-cephem-4-carboxylic acid] |  | > 32 | 16 (≈ 28.5 µM) | 8 (≈ 14.2 µM) | 0.5 (≈ 0.89 µM) | 8 (≈ 14.2 µM) | 8 (≈ 14.2 µM) | 8 (≈ 14.2 µM) | 8 (≈ 14.2 µM) | 4 (≈ 7.12 µM) | 32 (≈ 57 µM) | 0.5 (≈ 0.89 µM) | 0.13 (≈ 0.231 µM) | > 32 | 2 (≈ 3.56 µM) | 0.25 (≈ 0.445 µM) | 0.5 (≈ 0.89 µM) |  |  | 
NCCSCc1nc(Cl)sc1SC1=C(C(=O)O)N2C(=O)[C@@H](NC(=O)/C(=N\O)c3cccc(N)n3)[C@H]2SC1 [Cmpd 29, (7R)-7-[(Z)-2-(2-aminopyrid-6-yl)-2-(hydroxyimino)acetamido]-3-[2-chloro-4-(2-aminoethylthiomethyl)-1,3-thiazol-5-ylthio]-3-cephem-4-carboxylic acid] |  | > 32 | 2 (≈ 3.32 µM) | 1 (≈ 1.66 µM) |  | 1 (≈ 1.66 µM) | 4 (≈ 6.64 µM) | 2 (≈ 3.32 µM) | 1 (≈ 1.66 µM) | 2 (≈ 3.32 µM) | 16 (≈ 26.6 µM) | 0.25 (≈ 0.415 µM) |  | > 32 | 0.5 (≈ 0.83 µM) | 0.125 (≈ 0.208 µM) | 0.25 (≈ 0.415 µM) | 97 | 0.125 (≈ 0.208 µM) | 0.125 (≈ 0.208 µM)
